Reference: publication PMC9817970 (Cancers, 2022)

Columns and labels:
HMC1.2 cells = assay: Cell viability assay (CellTiter-Glo); format: cell-based, human; conditions: 72 h; for GI50 HMC1.2: inactive = less than 50% inhibition at a concentration of 50 μM; for GI50: Homo sapiens
Procedure: (§1) GIST-T1 (Cosmobio, Tokyo, Japan, # PMC-GIST01C-COS) cells were cultured in DMEM (Welgene, # LM001-05) and HMC1.2 (Merck, Darmstadt, Germany, # SCC062) cells were cultured in IMDM (Welgene, # LM004-01). Parental Ba/F3 (DSMZ, Braunschweig, Germany, # ACC300) cells were cultured in RPMI (Welgene, # LM011-51) with 10 ng IL-3/mL (Enzo, # ALX-201-821). The culture media was supplemented with 10% fetal bovine serum and 1% penicillin/streptomycin solution. The cells were maintained in a humidified atmosphere containing 5% CO2 at 37 °C.
(§2) Cells (GIST-T1: 5.0 × 10^3; HMC1.2: 1 × 10^4) were seeded in 96-well plates. Each compound was treated in each well at 10 dose points of 3-fold serial dilution. After treatment with each compound for 72 h, CellTiter-Glo solution (Promega, # G7572) was added to each well. Anti-proliferation activity was measured the luminescence using a 96-well plate reader (EnVision 2013).

GIST-T1 cells = assay: Cell viability assay (CellTiter-Glo); format: cell-based; conditions: Homo sapiens, GISTT1; 72 h; concentration causing half-maximal growth inhibition
Procedure: as §1, §2

c-KIT = c-KIT (Homo sapiens, UniProt P10721); assay: Radiometric biochemical kinase assay on c-KIT; parameters: purchased Reaction Biology Corp. (contract assay service); conditions: for IC50 against c-KIT: radiometric biochemical kinase assay, 10 μM ATP, inactive = less than 50% inhibition at a concentration of 10 μM; for IC50: read-out: IC50 against c-KIT; for fold enhanced c-KIT inhibitory activity compared with 6h: versus 6h; for fold decreased c-KIT inhibitory activity relative to 6r: versus 6r
Procedure: Biochemical kinase assays on c-KIT protein kinase were performed at Reaction Biology Corp. (San Diego, CA, USA). […] The kinase assay followed the manufacturer’s instruction. IC50 values were calculated by GraphPad prism 8.0 software (GraphPad Software, San Diego, CA, USA).
Enzymatic inhibitory activities of all synthesized thiazolo[5,4-b]pyridine derivatives against c-KIT were measured using radiometric biochemical kinase assays (Table 1). We first explored the R1 group of the thiazolo[5,4-b]pyridine scaffold.

c-KIT D816V Ba/F3 cells = assay: Anti-proliferative activity on Ba/F3 cells; format: cell-based; conditions: Mus musculus, BaF3
parental Ba/F3 cells = assay: Anti-proliferative activity on Ba/F3 cells; format: cell-based; conditions: Mus musculus, BaF3
Procedure: as §1, §2

Sequence of c-KIT (P10721 26-976): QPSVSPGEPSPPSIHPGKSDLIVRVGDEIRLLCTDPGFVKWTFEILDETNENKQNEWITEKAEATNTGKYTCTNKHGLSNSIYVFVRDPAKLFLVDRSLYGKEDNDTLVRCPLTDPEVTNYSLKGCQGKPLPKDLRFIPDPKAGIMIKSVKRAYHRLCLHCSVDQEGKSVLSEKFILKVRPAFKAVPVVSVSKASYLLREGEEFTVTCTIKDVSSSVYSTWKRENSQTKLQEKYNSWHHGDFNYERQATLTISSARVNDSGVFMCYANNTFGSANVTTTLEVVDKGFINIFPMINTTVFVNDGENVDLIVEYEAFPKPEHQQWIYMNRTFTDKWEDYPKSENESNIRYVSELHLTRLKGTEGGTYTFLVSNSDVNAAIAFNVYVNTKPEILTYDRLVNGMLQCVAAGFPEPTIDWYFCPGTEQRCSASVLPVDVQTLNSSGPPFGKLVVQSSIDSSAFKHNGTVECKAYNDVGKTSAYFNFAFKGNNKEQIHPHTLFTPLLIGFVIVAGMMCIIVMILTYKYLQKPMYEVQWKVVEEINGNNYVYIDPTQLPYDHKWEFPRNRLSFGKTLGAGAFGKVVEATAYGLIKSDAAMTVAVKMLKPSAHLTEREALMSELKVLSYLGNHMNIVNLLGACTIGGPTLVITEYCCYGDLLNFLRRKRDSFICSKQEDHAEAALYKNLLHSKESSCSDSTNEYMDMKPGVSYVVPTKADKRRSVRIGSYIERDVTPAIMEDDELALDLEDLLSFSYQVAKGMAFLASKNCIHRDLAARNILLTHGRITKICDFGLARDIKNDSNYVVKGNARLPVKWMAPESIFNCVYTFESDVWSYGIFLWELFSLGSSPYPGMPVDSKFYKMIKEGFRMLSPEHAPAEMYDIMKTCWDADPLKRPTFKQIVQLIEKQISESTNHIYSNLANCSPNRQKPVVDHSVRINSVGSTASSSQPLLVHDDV

Compound | GI50 HMC1.2 (HMC1.2 cells) | GI50 (GIST-T1 cells) | IC50 against c-KIT (c-KIT) | GI50 (HMC1.2 cells) | IC50 (c-KIT) | fold enhanced c-KIT inhibitory activity compared with 6h (c-KIT) | fold decreased c-KIT inhibitory activity relative to 6r (c-KIT) | GI50 (c-KIT D816V Ba/F3 cells) | GI50 (parental Ba/F3 cells)
Cc1ccc(NC(=O)c2cscn2)cc1-c1cnc2sc(N)nc2c1 [6a] | Inactive ^b | > 50000 nM | inactive^b |  |  |  |  |  | 
Cc1cc(C(=O)Nc2ccc(C)c(-c3cnc4sc(N)nc4c3)c2)no1 [6b] | Inactive ^b | 33000 ± 7090 nM | inactive^b |  |  |  |  |  | 
Cc1ccc(NC(=O)c2csc(-c3ccncc3)n2)cc1-c1cnc2sc(N)nc2c1 [6c] | Inactive ^b | 33700 ± 3450 nM | inactive^b |  |  |  |  |  | 
Cc1ccc(NC(=O)c2ccccc2)cc1-c1cnc2sc(N)nc2c1 [6d] |  | 16400 ± 2730 nM | inactive^b | 25.2 ± 2.21 µM |  |  |  |  | 
Cc1cccc(C(=O)Nc2ccc(C)c(-c3cnc4sc(N)nc4c3)c2)c1 [6e] |  | 3450 ± 410 nM | inactive^b | 11.5 ± 0.62 µM |  |  |  |  | 
Cc1cncc(C(=O)Nc2ccc(C)c(-c3cnc4sc(N)nc4c3)c2)c1 [6f] | inactive ^b | 20900 ± 2000 nM | inactive^b |  |  |  |  |  | 
Cc1ccc(NC(=O)c2cccc(S(C)(=O)=O)c2)cc1-c1cnc2sc(N)nc2c1 [6g] |  | 10800 ± 1060 nM | inactive^b | 36.8 ± 10.9 µM |  |  |  |  | 
Cc1ccc(NC(=O)c2cccc(C(F)(F)F)c2)cc1-c1cnc2sc(N)nc2c1 [6h] |  | 960 ± 100 nM |  | 7.26 ± 4.13 µM | 9870 nM |  |  |  | 
Cc1ccc(NC(=O)Cc2cccc(C(F)(F)F)c2)cc1-c1cnc2sc(N)nc2c1 [6i] |  | 7160 ± 870 nM | inactive^b | 9.65 ± 1.06 µM |  |  |  |  | 
Cc1ccc(NC(=O)Nc2cccc(C(F)(F)F)c2)cc1-c1cnc2sc(N)nc2c1 [6j] |  | 3310 ± 730 nM | inactive^b | 6.35 ± 0.32 µM |  |  |  |  | 
Cc1ccc(NC(=O)c2ccc(N(C)C)c(C(F)(F)F)c2)cc1-c1cnc2sc(N)nc2c1 [6k] |  | 180 ± 30 nM |  | 2.27 ± 0.84 µM | 4310 nM | 2.3- to 5.6 fold |  |  | 
Cc1ccc(NC(=O)c2ccc(N3CCOCC3)c(C(F)(F)F)c2)cc1-c1cnc2sc(N)nc2c1 [6l] |  | 80 ± 10 nM |  | 4.34 ± 1.31 µM | 1760 nM | 2.3- to 5.6 fold |  |  | 
Cc1ccc(NC(=O)c2ccc(N3CCN(C)CC3)c(C(F)(F)F)c2)cc1-c1cnc2sc(N)nc2c1 [6m] |  | 270 ± 170 nM |  | 3.41 ± 1.49 µM | 2170 nM | 2.3- to 5.6 fold |  |  | 
Cc1ccc(NC(=O)c2cc(N3CCOCC3)cc(C(F)(F)F)c2)cc1-c1cnc2sc(N)nc2c1 [6n] |  | 550 ± 90 nM | Inactive ^b | 7 ± 2.68 µM |  |  |  |  | 
Cc1ccc(NC(=O)c2cc(N3CCN(C)CC3)cc(C(F)(F)F)c2)cc1-c1cnc2sc(N)nc2c1 [6o] |  | 280 ± 80 nM |  | 2.36 ± 0.58 µM | 5030 nM |  |  |  | 
Cc1ccc(NC(=O)c2ccc(CN3CCOCC3)c(C(F)(F)F)c2)cc1-c1cnc2sc(N)nc2c1 [6p] |  | 660 ± 100 nM |  | 8.55 ± 2.4 µM | 5720 nM |  |  |  | 
Cc1ccc(NC(=O)c2ccc(CN3CCS(=O)(=O)CC3)c(C(F)(F)F)c2)cc1-c1cnc2sc(N)nc2c1 [6q] |  | 420 ± 70 nM |  | 15.5 ± 3.97 µM | 3230 nM |  |  |  | 
Cc1ccc(NC(=O)c2ccc(CN3CCN(CCO)CC3)c(C(F)(F)F)c2)cc1-c1cnc2sc(N)nc2c1 [6t] |  | 120 ± 30 nM |  | 6.62 ± 0.75 µM | 1250 nM |  |  |  | 
CC(=O)N1CCN(Cc2ccc(C(=O)Nc3ccc(C)c(-c4cnc5sc(N)nc5c4)c3)cc2C(F)(F)F)CC1 [6u] |  | 660 ± 80 nM |  | 11.3 ± 0.34 µM | 4560 nM |  |  |  | 
Cc1ccc(NC(=O)c2ccc(CN3CCCC(N(C)C)C3)c(C(F)(F)F)c2)cc1-c1cnc2sc(N)nc2c1 (stereo not drawn) [6v] |  | 50 ± 10 nM |  | 6.81 ± 0.67 µM | 390 nM |  |  |  | 
Cc1ccc(NC(=O)c2ccc(CN(C)CCN(C)C)c(C(F)(F)F)c2)cc1-c1cnc2sc(N)nc2c1 [6w] |  | 20 ± 10 nM |  | 4.99 ± 0.43 µM | 250 nM |  |  |  | 
Cc1ccc(NC(=O)c2ccc(CN3CCN(C)CC3)c(C(F)(F)F)c2)cc1-c1cnc2sc(NC(=O)C3CCCCC3)nc2c1 [7a] |  | 80 ± 10 nM |  | 4.58 ± 0.32 µM | 1510 nM |  | 5.3- to 10.8 fold |  | 
Cc1ccc(NC(=O)c2ccc(CN3CCN(C)CC3)c(C(F)(F)F)c2)cc1-c1cnc2sc(NC(=O)c3ccccc3)nc2c1 [7b] |  | 100 ± 10 nM |  | 5.22 ± 0.59 µM | 740 nM |  | 5.3- to 10.8 fold |  | 
Cc1ccc(NC(=O)c2ccc(N3CCOCC3)c(C(F)(F)F)c2)cc1-c1cnc2sc(NC(=O)C3CCCCC3)nc2c1 [7d] | inactive ^b | 8130 ± 1810 nM | inactive^b |  |  |  |  |  | 
CC(=O)Nc1nc2cc(-c3cc(NC(=O)c4ccc(N5CCOCC5)c(C(F)(F)F)c4)ccc3C)cnc2s1 [7e] |  | 230 ± 70 nM |  | 14 ± 10.2 µM | 880 nM |  |  |  | 
CC(=O)Nc1nc2cc(-c3cc(NC(=O)c4ccc(CN5CCOCC5)c(C(F)(F)F)c4)ccc3C)cnc2s1 [7f] |  | 300 ± 60 nM |  | 28.4 ± 13.3 µM | 3630 nM |  |  |  | 
CC(=O)Nc1nc2cc(-c3cc(NC(=O)c4ccc(CN5CCCC(N(C)C)C5)c(C(F)(F)F)c4)ccc3C)cnc2s1 (stereo not drawn) [7g] |  | 70 ± 10 nM |  | 4.88 ± 1.18 µM | 180 nM |  |  |  | 
CC(=O)Nc1nc2cc(-c3cc(NC(=O)c4ccc(CN(C)CCN(C)C)c(C(F)(F)F)c4)ccc3C)cnc2s1 [7h] |  | 20 nM |  | 4.98 ± 0.32 µM | 100 nM |  |  |  | 
CCN(CC)CCNC(=O)c1c(C)[nH]c(/C=C2\C(=O)Nc3ccc(F)cc32)c1C [sunitinib, reference compound] |  | 10 nM |  | 2.53 ± 0.35 µM |  |  |  | 580 ± 290 nM | 2720 ± 300 nM
